pIC50: −log10 of the molar value.
Test system: ASPS-1 complex tumor spheroids, viability
Test: Anticancer human tumor ASPS-1 cell line growth inhibition;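 also: spheroids exposed to agents for 7 days after 3 days of growth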;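 as to viability, T/C: 100% = DMSO vehicle treated spheroids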
Settings: for pIC50: curve of first compound; for viability, T/C: stronger effect = lower value
How it was run: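 Complex spheroids of malignant cells with endothelial cells and mesenchymal stem cells; agents alone or combined, from near clinical Cmax (or 10 microM if unknown) down in half-log steps, 0.25% DMSO final.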

[1] = second compound 30 pM, first compound 0.0316 µM
[2] = second compound 30 pM, first compound 0.1 µM
[3] = second compound 30 pM, first compound 0.316 µM
[4] = second compound 30 pM, first compound 1 µM
[5] = second compound 30 pM, first compound 3.16 µM
[6] = second compound 30 pM, first compound 10 µM
[7] = second compound 94.9 pM, first compound 0.0316 µM
[8] = second compound 94.9 pM, first compound 0.1 µM
[9] = second compound 94.9 pM, first compound 0.316 µM
[10] = second compound 94.9 pM, first compound 1 µM
[11] = second compound 94.9 pM, first compound 3.16 µM
[12] = second compound 94.9 pM, first compound 10 µM
[13] = second compound 0.0003 µM, first compound 0.0316 µM
[14] = second compound 0.0003 µM, first compound 0.1 µM
[15] = second compound 0.0003 µM, first compound 0.316 µM
[16] = second compound 0.0003 µM, first compound 1 µM
[17] = second compound 0.0003 µM, first compound 3.16 µM
[18] = second compound 0.0003 µM, first compound 10 µM
[19] = second compound 0.000949 µM, first compound 0.0316 µM
[20] = second compound 0.000949 µM, first compound 0.1 µM
[21] = second compound 0.000949 µM, first compound 0.316 µM
[22] = second compound 0.000949 µM, first compound 1 µM
[23] = second compound 0.000949 µM, first compound 3.16 µM
[24] = second compound 0.000949 µM, first compound 10 µM
[25] = second compound 0.003 µM, first compound 0.0316 µM
[26] = second compound 0.003 µM, first compound 0.1 µM
[27] = second compound 0.003 µM, first compound 0.316 µM
[28] = second compound 0.003 µM, first compound 1 µM
[29] = second compound 0.003 µM, first compound 3.16 µM
[30] = second compound 0.003 µM, first compound 10 µM

Row | Compound | pIC50 (second compound 30 pM) | pIC50 (second compound 94.9 pM) | pIC50 (second compound 0.0003 µM) | pIC50 (second compound 0.000949 µM) | pIC50 (second compound 0.003 µM) | viability, T/C [1] [%] | viability, T/C [2] [%] | viability, T/C [3] [%] | viability, T/C [4] [%] | viability, T/C [5] [%] | viability, T/C [6] [%] | viability, T/C [7] [%] | viability, T/C [8] [%] | viability, T/C [9] [%] | viability, T/C [10] [%] | viability, T/C [11] [%] | viability, T/C [12] [%] | viability, T/C [13] [%] | viability, T/C [14] [%] | viability, T/C [15] [%] | further results
1 | CC(C)n1c(=O)n(C)c2cnc3cc(F)c(-c4ccc(OCCCN5CCCCC5)nc4)cc3c21 + COc1cc2c(cc1O)CCNC21CSC2c3c(OC(C)=O)c(C)c4c(c3C(COC1=O)N1C(O)C3Cc5cc(C)c(OC)c(O)c5C(C21)N3C)OCO4 | < 5.00 | < 5.00 | 6.06 | > 7.50 | > 7.50 | 105 | 99.5 | 98.2 | 92.5 | 83.7 | 50 | 96.1 | 84 | 78 | 72.7 | 64.4 | 48.7 | 68.7 | 62.7 | 54.7 | viability, T/C [16]: 50.4%; viability, T/C [17]: 41.6%; viability, T/C [18]: 31.1%; viability, T/C [19]: 48.7%; viability, T/C [20]: 45.6%; viability, T/C [21]: 35.3%; viability, T/C [22]: 25.1%; viability, T/C [23]: 19.9%; viability, T/C [24]: 18.1%; viability, T/C [25]: 15%; viability, T/C [26]: 5.65%; viability, T/C [27]: 1.44%; viability, T/C [28]: 0.39%; viability, T/C [29]: 0.32%; viability, T/C [30]: 0.46%
2 | CC1COCCN1c1cc(-c2ccnn2C)c2ccnc(-c3ccn[nH]3)c2n1 (stereo not given) + COc1cc2c(cc1O)CCNC21CSC2c3c(OC(C)=O)c(C)c4c(c3C(COC1=O)N1C(O)C3Cc5cc(C)c(OC)c(O)c5C(C21)N3C)OCO4 | 6.81 | 6.99 | > 7.50 | > 7.50 | > 7.50 | 81.9 | 53.9 | 43.1 | 42.9 | 40.7 | 38.9 | 71.7 | 50.1 | 37.5 | 38.5 | 40.6 | 41 | 46.4 | 37 | 32 | viability, T/C [16]: 30.1%; viability, T/C [17]: 43%; viability, T/C [18]: 38.3%; viability, T/C [19]: 27.4%; viability, T/C [20]: 25%; viability, T/C [21]: 21.3%; viability, T/C [22]: 25.9%; viability, T/C [23]: 18.1%; viability, T/C [24]: 13.9%; viability, T/C [25]: 11.5%; viability, T/C [26]: 10.2%; viability, T/C [27]: 8.78%; viability, T/C [28]: 5.28%; viability, T/C [29]: 0.36%; viability, T/C [30]: 0.46%
3 | COc1cc(C)[nH]c(=O)c1CN1CCc2c(Cl)cc(C(OC)C3COC3)c(Cl)c2C1=O (stereo not given) + COc1cc2c(cc1O)CCNC21CSC2c3c(OC(C)=O)c(C)c4c(c3C(COC1=O)N1C(O)C3Cc5cc(C)c(OC)c(O)c5C(C21)N3C)OCO4 | < 5.00 | < 5.00 | < 5.00 | < 5.00 | > 7.50 | 107 | 103 | 100 | 108 | 102 | 101 | 98.7 | 103 | 103 | 101 | 100 | 99.2 | 98 | 102 | 98.7 | viability, T/C [16]: 95%; viability, T/C [17]: 96.1%; viability, T/C [18]: 93.2%; viability, T/C [19]: 77.7%; viability, T/C [20]: 73.6%; viability, T/C [21]: 72.1%; viability, T/C [22]: 64.7%; viability, T/C [23]: 68.2%; viability, T/C [24]: 56%; viability, T/C [25]: 19.5%; viability, T/C [26]: 21.6%; viability, T/C [27]: 23.1%; viability, T/C [28]: 18.3%; viability, T/C [29]: 19%; viability, T/C [30]: 10.5%
4 | COc1ccc([C@@H](O)c2cc(-c3ncnc4cc(N5CCOCC5)ccc34)c(F)cc2Cl)nn1 + COc1cc2c(cc1O)CCNC21CSC2c3c(OC(C)=O)c(C)c4c(c3C(COC1=O)N1C(O)C3Cc5cc(C)c(OC)c(O)c5C(C21)N3C)OCO4 | 5.18 | 5.32 | 5.82 | 6.42 | > 7.50 | 103 | 106 | 103 | 93.2 | 77 | 34.7 | 108 | 106 | 101 | 96.7 | 62.6 | 27.5 | 103 | 108 | 97.7 | viability, T/C [16]: 68.3%; viability, T/C [17]: 18.7%; viability, T/C [18]: 5.37%; viability, T/C [19]: 79.3%; viability, T/C [20]: 81%; viability, T/C [21]: 55%; viability, T/C [22]: 17.5%; viability, T/C [23]: 1.86%; viability, T/C [24]: 0.35%; viability, T/C [25]: 22.5%; viability, T/C [26]: 19.1%; viability, T/C [27]: 9.89%; viability, T/C [28]: 1.71%; viability, T/C [29]: 1.27%; viability, T/C [30]: 1.18%
5 | Cc1cc(C)c(CNC(=O)c2cc(-c3ccc(CN4CCOCC4)cc3)cc3c2cnn3C2CCCC2)c(=O)[nH]1 + COc1cc2c(cc1O)CCNC21CSC2c3c(OC(C)=O)c(C)c4c(c3C(COC1=O)N1C(O)C3Cc5cc(C)c(OC)c(O)c5C(C21)N3C)OCO4 | < 5.00 | < 5.00 | < 5.00 | 6.56 | > 7.50 | 103 | 97.4 | 102 | 104 | 96.9 | 84.4 | 105 | 97.8 | 98.7 | 99.5 | 93.5 | 76.8 | 92 | 96.2 | 92.8 | viability, T/C [16]: 86.2%; viability, T/C [17]: 80.1%; viability, T/C [18]: 63.1%; viability, T/C [19]: 56.8%; viability, T/C [20]: 75.2%; viability, T/C [21]: 39.9%; viability, T/C [22]: 31.6%; viability, T/C [23]: 24.5%; viability, T/C [24]: 9.44%; viability, T/C [25]: 13.7%; viability, T/C [26]: 5.99%; viability, T/C [27]: 2.02%; viability, T/C [28]: 0.27%; viability, T/C [29]: 0.25%; viability, T/C [30]: 0.32%
6 | [2H]c1nc(C)nc([2H])c1-c1cc(NC[C@@H](C)c2cccc3c(C(=O)NC)ccnc23)ncn1 + COc1cc2c(cc1O)CCNC21CSC2c3c(OC(C)=O)c(C)c4c(c3C(COC1=O)N1C(O)C3Cc5cc(C)c(OC)c(O)c5C(C21)N3C)OCO4 | < 5.00 | < 5.00 | < 5.00 | 5.18 | > 7.50 | 106 | 105 | 102 | 107 | 102 | 98.7 | 106 | 102 | 99 | 98.2 | 97.6 | 99.5 | 97.6 | 94.8 | 93 | viability, T/C [16]: 88.5%; viability, T/C [17]: 98%; viability, T/C [18]: 91.3%; viability, T/C [19]: 78.6%; viability, T/C [20]: 76.5%; viability, T/C [21]: 71.1%; viability, T/C [22]: 66.2%; viability, T/C [23]: 56.2%; viability, T/C [24]: 46.2%; viability, T/C [25]: 18.6%; viability, T/C [26]: 22.6%; viability, T/C [27]: 18%; viability, T/C [28]: 18.1%; viability, T/C [29]: 11%; viability, T/C [30]: 3.59%

Source: PubChem BioAssay AID1845200 (Molecular Pharmacology Branch, DTP, NCI, 2023)
